From patent US20070253907A1, “Non Human Transgenic Animal as Model of Neurodegenerative Diseases and for the Early Diagnosis Thereof” (priority 2004, published 2007)
Entries after “also recorded” stand apart in the source; their conditions may differ.

System: VK-AD11 mice
Test: Reversal of the neurodegenerative phenotype of VK-AD11 mice by intranasal NGF administration
Format: in vivo
Details: VK-AD11 mice from 4 months of age, NGF 10 μM solution intranasally every 2 days
Procedure: All experiments were conducted in mice starting from 4 months of age, when neurodegeneration is not so readily apparent. NGF was administered by intranasal injection (Frey et al., 1997) conducted every 2 days. NGF was administered as a 10 μM solution in phosphate buffer pH 7.4, injecting 3 μl per nostril every 2 min and alternating nostrils. The VK-AD11 control mice and non transgenic mice were treated only with phosphate buffer. For each administration, the infusion lasted 30 min. This non invasive method for administering NGF allows to avoid the use of the intraventricular injections to apply NGF directly to the cerebral tissue.
To verify the administration of NGF, the mice were sacrificed 2 months from the begining of the treatment. The brain was removed and fixed in paraformaldehyde to conduct histological analyses.

Q: Which results are given for “NGF: Nerve Growth Factor, administered intranasally as a 10 μM solution in phosphate buffer pH 7.4”?
A: cholinergic deficit (histology 2 months from beginning of treatment (FIG. 18A)): improves; also recorded: a similar phenotype to that of the non transgenic control mice was re-established; deposition of β-amyloid (number of cells containing β-amyloid) (histology 2 months from beginning of treatment (FIG. 18B)): decreases; also recorded: a similar phenotype to that of the non transgenic control mice was re-established; hyperphosphorylated tau (number of cells that express phosphorylated tau) (histology 2 months from beginning of treatment (FIG. 18C)): decreases; also recorded: a similar phenotype to that of the non transgenic control mice was re-established
